How the values were obtained:
[1] = molecular target: T1, Bifunctional dihydrofolate reductase-thymidylate synthase (Toxoplasma gondii, UniProt Q07422); experiment: Inhibition of Toxoplasma gondii dihydrofolate reductase
T1 sequence (Q07422 whole entry): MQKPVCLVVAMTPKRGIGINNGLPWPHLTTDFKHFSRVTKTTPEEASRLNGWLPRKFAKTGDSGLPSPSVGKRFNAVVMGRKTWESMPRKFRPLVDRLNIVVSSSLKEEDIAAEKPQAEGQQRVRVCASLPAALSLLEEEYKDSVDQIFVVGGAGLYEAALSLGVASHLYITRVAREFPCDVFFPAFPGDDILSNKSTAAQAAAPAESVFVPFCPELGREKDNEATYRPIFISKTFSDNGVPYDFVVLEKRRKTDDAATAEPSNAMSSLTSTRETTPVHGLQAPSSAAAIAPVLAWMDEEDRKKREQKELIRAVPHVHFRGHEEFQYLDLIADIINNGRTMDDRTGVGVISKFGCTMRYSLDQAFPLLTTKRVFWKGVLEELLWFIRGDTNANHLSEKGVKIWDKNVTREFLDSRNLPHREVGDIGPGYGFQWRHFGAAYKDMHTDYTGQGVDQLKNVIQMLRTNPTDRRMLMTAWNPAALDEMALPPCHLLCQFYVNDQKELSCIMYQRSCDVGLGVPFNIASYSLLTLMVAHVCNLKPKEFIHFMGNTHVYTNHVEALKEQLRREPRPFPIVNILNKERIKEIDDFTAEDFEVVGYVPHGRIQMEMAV

Dihydrofolate reductase [2] = molecular target: T2, Dihydrofolate reductase (Pneumocystis carinii, UniProt P16184)
T2 sequence (P16184 whole entry): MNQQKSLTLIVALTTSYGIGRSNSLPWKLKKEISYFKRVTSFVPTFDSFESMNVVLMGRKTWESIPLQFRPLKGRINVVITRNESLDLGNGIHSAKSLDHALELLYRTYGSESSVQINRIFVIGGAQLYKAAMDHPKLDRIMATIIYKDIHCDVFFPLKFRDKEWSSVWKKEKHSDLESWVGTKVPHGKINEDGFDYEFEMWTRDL
Description: Inhibition of Pneumocystis carinii dihydrofolate reductase

Dihydrofolate reductase [3] = molecular target: T3, Dihydrofolate reductase (Rattus norvegicus, UniProt Q920D2)
T3 sequence (Q920D2 whole entry): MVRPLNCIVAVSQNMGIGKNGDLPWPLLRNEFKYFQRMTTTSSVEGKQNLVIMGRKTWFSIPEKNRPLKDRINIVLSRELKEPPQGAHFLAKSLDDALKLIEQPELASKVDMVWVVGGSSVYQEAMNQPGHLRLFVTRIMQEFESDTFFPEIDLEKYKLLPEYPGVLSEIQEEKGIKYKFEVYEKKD
Description: Inhibition of rat liver dihydrofolate reductase

[4] = molecular target: T4, Dihydrofolate reductase (Rattus norvegicus) (UniProt Q920D2); experiment: Percent inhibition against rat liver Dihydrofolate reductase; design: concentration or dose not given beside the values; conditions: concentration not given here
T4 sequence (whole entry): T3 sequence (Q920D2 whole entry)

[5] = molecular target: T5, Bifunctional dihydrofolate reductase-thymidylate synthase (Toxoplasma gondii) (UniProt Q07422); experiment: Percent inhibition against Toxoplasma gondii Dihydrofolate reductase; conditions: concentration not given here
T5 sequence (whole entry): T1 sequence (Q07422 whole entry)

| inhibition [4] | SMILES | IC50 [1] | IC50 (Dihydrofolate reductase [2]) | IC50 (Dihydrofolate reductase [3]) | inhibition [5] |
| --- | --- | --- | --- | --- | --- |
|  | Nc1nc(N)c2[nH]c(-c3ccc(-c4ccccc4)cc3)nc2n1 | 32.9 µM | 605 µM | 30.1 µM |  |
| 15% | COc1ccc(-c2nc3[nH]c(N)nc(N)c-3n2)c2ccccc12 | 13 µM | 13 µM | 13 µM | 10% |
|  | COc1cc(-c2nc3c(N)nc(N)nc3[nH]2)cc(OC)c1O | 1 µM | 68 µM | 15.3 µM |  |
|  | COc1ccc(OC)c(-c2nc3nc(N)nc(N)c3[nH]2)c1 | 1.7 µM | 37.4 µM | 3.5 µM |  |
| 19% | COc1cc(NCc2nc3[nH]c(N)nc(N)c-3n2)cc(OC)c1OC |  |  |  | 5% |
|  | Nc1nc(N)c2nc(-c3ccccc3)[nH]c2n1 | 28 µM | 153 µM | 59.9 µM |  |
|  | COc1ccc(-c2nc3nc(N)nc(N)c3[nH]2)c(OC)c1 | 2.4 µM | 14 µM | 0.9 µM |  |
|  | COc1cc(-c2nc3nc(N)nc(N)c3[nH]2)c([N+](=O)[O-])cc1OC |  | 25 µM | 25 µM |  |
|  | Nc1nc(N)c2nc(-c3ccc4ccccc4c3)[nH]c2n1 | 27 µM | 113 µM | 280 µM |  |
|  | COc1cc(OC)c(-c2nc3nc(N)nc(N)c3[nH]2)c(OC)c1 | 0.84 µM | 31.5 µM | 1.88 µM |  |
|  | COc1cc(OC)c(-c2nc3nc(N)nc(N)c3[nH]2)cc1OC | 1.5 µM | 22 µM | 7 µM |  |
| 14% | COc1cc(-c2nc3[nH]c(N)nc(N)c-3n2)c([N+](=O)[O-])cc1OC |  |  |  |  |
| 4% | Nc1nc(N)c2[nH]c(-c3c(Cl)cccc3Cl)nc2n1 | 11 µM | 11 µM | 11 µM | 6% |
|  | Nc1nc(N)c2nc(Cc3ccccc3)[nH]c2n1 | 0.5 µM |  | 1.6 µM |  |
| 0% | Nc1nc(N)c2[nH]c(-c3ccncc3)nc2n1 | 20 µM | 18 µM | 18 µM | 14% |
|  | COc1ccc(-c2nc3c(N)nc(N)nc3[nH]2)cc1OC |  | 12 µM | 52.3 µM |  |
|  | Nc1nc(N)c2[nH]c(CSc3ccc4ccccc4c3)nc2n1 | 45 µM | 105 µM | 107 µM |  |
|  | Nc1nc(N)c2[nH]c(-c3ccc(Cl)c(Cl)c3)nc2n1 | 6.7 µM |  | 252 µM |  |
|  | COc1cc(-c2nc3nc(N)nc(N)c3[nH]2)cc(OC)c1OC | 2.2 µM | 59.4 µM | 13 µM |  |
|  | COc1ccc(-c2nc3c(N)nc(N)nc3[nH]2)c(OC)c1OC | 1.8 µM | 17 µM | 3.7 µM |  |
|  | COc1cc(OC)cc(-c2nc3nc(N)nc(N)c3[nH]2)c1 | 3 µM |  | 32.4 µM |  |
|  | Nc1nc(N)c2nc(C3c4ccccc4-c4ccccc43)[nH]c2n1 |  | 35 µM |  |  |

| SMILES | inhibition [4] | IC50 [1] | IC50 (Dihydrofolate reductase [2]) | IC50 (Dihydrofolate reductase [3]) | inhibition [5] |
| --- | --- | --- | --- | --- | --- |
| COc1ccc(OC)c(NCc2nc3c(N)nc(N)nc3[nH]2)c1 | 15% | 49 µM | 29 µM | 29 µM |  |
